The values below come from ChEMBL document CHEMBL1141457, “N-methyl-D-aspartate antagonists and neuropathic pain: the search for relief” (2007).

The species entered for assay [1] is Homo sapiens. Briefly: Reduction in post-surgical neuropathic pain intensity in cancer patient. The format is functional. More on the design: scale not given: the % may be the effect or the level left.
Assay [2] is filed under the species Homo sapiens. Put plainly: Reduction in pain intensity in diabetic neuropathy patient. The arrangement: scale not given: the % may be the effect or the level left. Type of assay: functional.

For the molecule `NC12CC3CC(CC(C3)C1)C2` [AMANTADINE], the Activity in assay [1] was found to be 31%. In assay [2], `COc1ccc2c(c1)[C@]13CCCC[C@@H]1[C@H](C2)N(C)CC3` [DEXTROMETHORPHAN] gave an Activity of 24%.
